Active and inactive are the calls of the source.
Tests used:
[1] = molecular target: T1, Calpain-2 catalytic subunit (Sus scrofa, UniProt P43367); assay: pig calpain II inhibitor potency, dose response, biochemical, fluorogenic peptide substrate (AID 1420); type: functional
T1 sequence (P43367 whole entry): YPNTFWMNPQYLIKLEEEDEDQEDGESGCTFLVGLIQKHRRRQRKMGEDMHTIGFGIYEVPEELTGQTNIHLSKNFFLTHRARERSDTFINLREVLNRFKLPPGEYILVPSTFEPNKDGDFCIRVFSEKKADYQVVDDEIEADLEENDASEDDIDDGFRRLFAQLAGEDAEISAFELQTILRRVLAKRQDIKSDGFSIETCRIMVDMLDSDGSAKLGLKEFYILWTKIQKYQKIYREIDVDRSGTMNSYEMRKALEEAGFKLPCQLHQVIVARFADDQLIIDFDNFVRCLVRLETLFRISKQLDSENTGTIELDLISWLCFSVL

[2] = molecular target: T2, DNA repair protein RAD52 homolog (Homo sapiens, UniProt P43351); type: functional, biochemical
T2 sequence (P43351 whole entry): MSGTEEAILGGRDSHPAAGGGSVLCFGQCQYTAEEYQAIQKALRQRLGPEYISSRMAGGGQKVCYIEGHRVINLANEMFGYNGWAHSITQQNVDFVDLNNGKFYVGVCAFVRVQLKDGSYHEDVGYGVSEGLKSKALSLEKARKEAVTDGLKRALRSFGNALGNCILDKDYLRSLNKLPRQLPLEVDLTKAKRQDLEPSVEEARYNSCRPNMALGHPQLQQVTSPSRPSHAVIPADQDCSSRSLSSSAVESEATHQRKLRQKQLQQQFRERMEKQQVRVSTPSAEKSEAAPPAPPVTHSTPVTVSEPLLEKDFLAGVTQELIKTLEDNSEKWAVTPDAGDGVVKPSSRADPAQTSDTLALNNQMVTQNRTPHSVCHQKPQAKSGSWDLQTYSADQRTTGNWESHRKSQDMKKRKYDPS

[3] = molecular target: T3, RNA-binding protein pos-1 (Caenorhabditis elegans, UniProt G5EF15); assay: inhibitors of POS-1/mex-3 RNA binding, dose response, biochemical, fluorescence polarization (AID 1964);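 note: purified POS-1 fused to maltose binding protein made in E. coli; potency of compounds blocking POS-1 binding to fluorescent RNA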
T3 sequence (G5EF15 whole entry): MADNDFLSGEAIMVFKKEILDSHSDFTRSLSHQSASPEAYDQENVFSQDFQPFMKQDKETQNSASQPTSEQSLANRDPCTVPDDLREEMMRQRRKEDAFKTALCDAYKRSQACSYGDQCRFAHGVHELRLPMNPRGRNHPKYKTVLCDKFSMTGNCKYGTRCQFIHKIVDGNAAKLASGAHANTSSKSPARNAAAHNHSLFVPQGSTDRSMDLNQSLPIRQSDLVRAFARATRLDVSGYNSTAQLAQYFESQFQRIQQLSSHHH

[4] = molecular target: T4, Zinc finger protein mex-5 (Caenorhabditis elegans, UniProt Q9XUB2); assay: MEX-5/TCR-2 RNA interaction inhibitors, dose response, biochemical, C. elegans, fluorescence polarization (AID 1960)
T4 sequence (Q9XUB2 whole entry): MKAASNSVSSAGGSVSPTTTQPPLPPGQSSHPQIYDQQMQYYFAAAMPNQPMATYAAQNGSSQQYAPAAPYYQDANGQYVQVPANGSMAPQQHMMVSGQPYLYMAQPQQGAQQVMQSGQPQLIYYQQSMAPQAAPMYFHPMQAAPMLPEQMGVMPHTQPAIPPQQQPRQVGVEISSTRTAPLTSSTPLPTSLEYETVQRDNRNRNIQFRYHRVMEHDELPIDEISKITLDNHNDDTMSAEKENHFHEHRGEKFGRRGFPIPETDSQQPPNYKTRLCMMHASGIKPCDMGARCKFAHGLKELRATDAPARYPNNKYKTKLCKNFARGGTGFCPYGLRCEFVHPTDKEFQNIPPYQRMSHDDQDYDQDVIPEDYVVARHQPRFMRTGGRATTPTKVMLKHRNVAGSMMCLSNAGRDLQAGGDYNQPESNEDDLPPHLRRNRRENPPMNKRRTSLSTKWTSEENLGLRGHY

[5] = off-target signal loss in HeLa-CEM21 co-culture – HeLa F-luc CTL cells, cherry-picked, counter-screen for HIV-1 Env fusion inhibitor project, dose response (AID 652040); type: functional, cell-based;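 note: potency for signal decrease marking cytotoxic or nonspecific inhibition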
[6] = inhibitors of clade B AD8 Env fusion, dose response, cell-based, cherry-pick (AID 652062); type: functional;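 note: luciferase signal from cell-cell fusion driven by HIV-1 clade B AD8 Env; potency is for inhibitors of fusion seen as a drop in luminescence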
H9c2 = assay: cells; type: functional, cell-based; settings: Rattus norvegicus, H9c2, Myocardium;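 note: confirmatory concentration-response retest of ultra-high-throughput screening hits for modulation of myocardial damage; cell death induced by hydrogen peroxide oxidative stress; compound pretreatment for 60 min then peroxide exposure for 2 h; potency is for protecting the cells against peroxide damage rather than for killing them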
[7] = P. falciparum 3D7-ScDHODH growth inhibitors, dose response, SYBR Green, dry powder samples (AID 1159570); type: functional, cell-based;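 note: parasite growth measured after 72 hours of compound exposure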
[8] = P. falciparum Dd2 growth inhibitors, dose response, SYBR Green, cherry-picked samples (AID 1159567); type: functional, cell-based
[9] = P. falciparum Dd2 growth inhibitors, dose response, SYBR Green, dry powder samples (AID 1159566); type: functional, cell-based;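 note: potency for growth inhibition with lower SYBR green DNA signal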
[10] = P. falciparum ATP4 D1247Y mutant growth inhibitors, dose response, NITD609-resistant line, SYBR Green, dry powder (AID 1159571); type: functional, cell-based;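 note: parasites synchronized at ring stage by sorbitol before testing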
[11] = inhibitors of HIV Env-driven cell fusion, dose response, cherry-pick (AID 652057); type: functional, cell-based
[12] = ZM109 Env clade C HIV-1 fusion inhibitors, dose response, HeLa effector, CEM target cells, luciferase, cherry-pick (AID 652058); type: functional, cell-based
[13] = tested on: Streptococcus sp. 'group A'; assay: growth inhibition of control SK(-) GAS strain, dose response, counter-screen for streptokinase expression inhibitor project, luminescence, kanamycin, BacTiterGlo, confirmation (AID 1900); type: functional, organism-based
[14] = molecular target: Induced myeloid leukemia cell differentiation protein Mcl-1 (Homo sapiens, UniProt Q07820); type: functional
Chain of Induced myeloid leukemia cell differentiation protein Mcl-1 (Q07820 whole entry): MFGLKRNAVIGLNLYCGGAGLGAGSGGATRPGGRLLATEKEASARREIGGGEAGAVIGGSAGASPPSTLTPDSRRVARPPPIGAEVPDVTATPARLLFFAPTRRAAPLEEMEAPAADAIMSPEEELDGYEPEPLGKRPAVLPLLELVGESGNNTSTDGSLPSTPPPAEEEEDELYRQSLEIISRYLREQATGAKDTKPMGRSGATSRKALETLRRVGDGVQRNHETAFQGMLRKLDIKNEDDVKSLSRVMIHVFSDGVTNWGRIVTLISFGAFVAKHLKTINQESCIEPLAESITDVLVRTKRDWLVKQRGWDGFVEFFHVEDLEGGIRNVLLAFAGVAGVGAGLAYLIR

Streptococcus = assay: Group A Streptococcus viability loss, dose response, counter-screen for streptokinase expression inhibitor project, luminescence, BacTiterGlo (AID 1915); type: functional, organism-based;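 note: potency for reduction of bacterial viability or growth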
[15] = molecular target: T5, Ubiquitin-conjugating enzyme E2 N (Homo sapiens, UniProt P61088); type: functional;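 note: Dose-response confirmation in a TR-FRET assay detecting UBC13-driven polyubiquitin chain formation, inhibition measured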
T5 sequence (P61088 whole entry): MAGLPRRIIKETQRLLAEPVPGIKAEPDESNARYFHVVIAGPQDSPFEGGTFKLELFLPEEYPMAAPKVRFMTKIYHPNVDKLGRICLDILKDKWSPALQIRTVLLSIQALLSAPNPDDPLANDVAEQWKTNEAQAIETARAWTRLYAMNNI

[16] = intracellular Trypanosoma cruzi inhibitors in host cells – cell-based, plate reader, cherry-pick samples, set 3, dose response (AID 651818); type: functional;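 note: compounds incubated with infected cells for about four days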
[17] = molecular target: T6, Corticotropin-releasing factor receptor 2/Corticotropin-releasing factor-binding protein (Homo sapiens, UniProt P24387+Q13324); assay: Dose Response confirmation of uHTS hits for small molecule antagonists of the CRF-binding protein and CRF-R2 receptor complex.; type: functional; settings: read-out: IC50_Mean
T6 sequence (Q13324 whole entry): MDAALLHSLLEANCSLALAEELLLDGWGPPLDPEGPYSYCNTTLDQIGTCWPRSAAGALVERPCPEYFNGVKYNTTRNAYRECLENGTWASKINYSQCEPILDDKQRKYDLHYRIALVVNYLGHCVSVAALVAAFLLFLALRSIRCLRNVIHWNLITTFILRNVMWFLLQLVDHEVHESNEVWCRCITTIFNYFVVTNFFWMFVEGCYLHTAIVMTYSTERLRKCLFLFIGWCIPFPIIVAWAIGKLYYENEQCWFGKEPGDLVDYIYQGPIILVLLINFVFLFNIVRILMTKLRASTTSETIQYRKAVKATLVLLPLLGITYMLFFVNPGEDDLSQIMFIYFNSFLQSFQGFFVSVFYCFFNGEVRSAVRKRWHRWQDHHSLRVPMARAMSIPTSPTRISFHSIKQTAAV
T6 sequence (P24387 whole entry): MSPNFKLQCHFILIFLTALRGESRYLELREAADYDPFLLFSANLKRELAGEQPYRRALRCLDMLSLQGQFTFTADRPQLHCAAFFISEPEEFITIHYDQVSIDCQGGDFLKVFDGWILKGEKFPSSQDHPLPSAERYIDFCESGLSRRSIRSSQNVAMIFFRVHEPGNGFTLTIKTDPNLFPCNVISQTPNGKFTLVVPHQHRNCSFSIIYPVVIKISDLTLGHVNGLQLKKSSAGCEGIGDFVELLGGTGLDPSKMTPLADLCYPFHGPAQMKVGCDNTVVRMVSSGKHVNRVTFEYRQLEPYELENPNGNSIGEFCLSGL

[18] = molecular target: T6, Corticotropin-releasing factor receptor 2/Corticotropin-releasing factor-binding protein; assay: activators of CRF receptor 2 with binding protein – uHTS hits, confirmation (AID 602473); type: functional; settings: read-out: EC50_Mean

For `CC(C)/N=C(\S)NN=C1CCCCCCCCCCC1`, the IC50 [1] was 1.04 µM (not active).
For `CCN(CC)CCN(C(=O)c1ccc(N2C(=O)CCC2=O)cc1)c1nc2cc3c(cc2s1)OCCO3`, the AC50 [2] was 21.9 µM (active).
For `CCn1c(C)nc2cc(N)ccc21`, the EC50 [3] was 261 µM (active), the EC50 [4] was 4.59 µM (active) and the AC50 [2] was 5.49 µM (active).
For `O=C(OCC(=O)N1c2ccccc2Sc2ccccc21)c1ccc[n+]([O-])c1`, the IC50 [1] was 1.66 µM (not active).
In the case of `O=C1c2cccc3cccc(c23)C(=O)N1CCN1CCN(C(=S)Nc2ccc(Cl)cc2)CC1`, the IC50 [1] is reported as 22.7 µM (not active).
With `Cc1cccc(Oc2ccc(Cl)cc2N)c1` the IC50 [1] was > 50 µM (not active).
For `OCC[C@@H]1C[C@@H](O)[C@H](O)[C@]2(OCc3ccccc32)O1`, the AC50 [5] was 28.2 µM (active) and the AC50 [6] was 27.2 µM (active).
For `C[C@@H]1CN([C@H](C)CO)S(=O)(=O)c2ccc(C#Cc3ccccc3F)cc2O[C@H]1CN(C)C(=O)c1ccc2c(c1)OCO2`, the IC50 (H9c2) was > 79 µM (inactive), the AC50 [7] was 1.61 µM (active) and the AC50 [8] was 1.6 µM (active). The AC50 [9] was 1.18 µM (active) and the AC50 [10] was 0.925 µM (active).
With `O=C(Cc1ccc(S(=O)(=O)N2CCOCC2)s1)N1CCN(S(=O)(=O)c2ccc(Cl)cc2)CC1` the AC50 [11] was 7.03 µM (active), the AC50 [12] was 7.93 µM (active) and the AC50 [5] was 14.1 µM (active). For the same compound, the AC50 [6] was 28.2 µM (active).
For `O=[N+]([O-])c1cc(Br)c(O)c(/C=N/Nc2nc3ccccc3s2)c1`, the EC50 [13] was 1.59 µM (active), the IC50 [14] was > 54 µM (active) and the EC50 (Streptococcus) was 1.69 µM (active).
For `COc1ccccc1NS(=O)(=O)c1cccc(C(=O)N/N=C/c2c(CO)cnc(C)c2O)c1`, the IC50 [15] was > 20 µM (inactive) and the IC50 (H9c2) was > 79 µM (inactive).
In the case of `C[C@H](CO)N1C[C@H](C)[C@H](CN(C)C(=O)Nc2ccc(F)cc2)Oc2c(NC(=O)c3ccncc3)cccc2C1=O`, the AC50 [16] is reported as 2.08 µM (active).
With `Cc1ccc(S(=O)(=O)Nc2ccc3c(c2)C(=O)N([C@H](C)CO)C[C@H](C)[C@@H](CN(C)C(=O)Nc2ccc(C(F)(F)F)cc2)OCCCC[C@@H](C)O3)cc1` the AC50 [16] was 4.82 µM (active).
In the case of `Cc1ccc(S(=O)(=O)N(C)C[C@H]2Oc3c(NC(=O)c4nc5ccccc5s4)cccc3C(=O)N([C@@H](C)CO)C[C@@H]2C)cc1`, the AC50 [16] is reported as 1.09 µM (active).
With `C[C@@H]1CN([C@@H](C)CO)C(=O)c2cccc(NC(=O)Nc3ccc(F)cc3)c2O[C@@H]1CN(C)Cc1ccc(C(=O)Nc2ccccc2N)cc1` the AC50 [16] was 3.68 µM (active).
With `C[C@@H]1CN([C@H](C)CO)C(=O)Cc2cc(NS(=O)(=O)c3ccc(F)cc3)ccc2O[C@@H]1CN(C)Cc1ccc(-c2ccccc2)cc1` the AC50 [16] was 3.2 µM (active).
With `C[C@@H]1CN([C@@H](C)CO)C(=O)c2cccc(NS(=O)(=O)c3ccc(Cl)cc3)c2O[C@H]1CN(C)Cc1ccc(C(=O)Nc2ccccc2N)cc1` the AC50 [16] was 2.53 µM (active).
In the case of `CC1CCN(C(=O)c2ncn3c2C(=O)N[C@@H](C)C3)CC1`, the AC50 [11] is reported as 1.94 µM (active), the AC50 [12] is reported as 9.53 µM (active) and the AC50 [5] is reported as 7.15 µM (active). For the same compound, the AC50 [6] was 9.91 µM (active).
In the case of `O=C(N/N=C/c1ccccn1)c1cccs1`, the IC50 (H9c2) is reported as > 79 µM (inactive), the IC50 [17] is reported as > 47.1 µM (inactive) and the EC50 [18] is reported as > 53 µM (inactive).
In the case of `CCN(CC)CCN(C(=O)c1ccc2c(c1)CCCC2)c1nc2c(OC)cccc2s1`, the AC50 [2] is reported as 24.3 µM (active).
With `O=C(Nc1ccccc1)N1CCCCN2[C@H](CO)[C@H](c3ccc(C#Cc4cccnc4)cc3)[C@@H]2C1` the AC50 [7] was 0.15 µM (active), the AC50 [8] was 0.676 µM (active) and the AC50 [9] was 0.165 µM (active). For the same compound, the AC50 [10] was 0.157 µM (active).
With `C[C@H](CO)N1C[C@H](C)[C@@H](CN(C)C(=O)Nc2cccc3ccccc23)Oc2ccc(NC(=O)Cc3cn(C)c4ccccc34)cc2C1=O` the AC50 [7] was 2.16 µM (active), the AC50 [8] was 2.34 µM (active) and the AC50 [9] was 1.38 µM (active). The AC50 [10] was 1.56 µM (active).
In the case of `C[C@@H]1CN([C@@H](C)CO)C(=O)c2cccc(NC(=O)Nc3ccccc3)c2O[C@@H]1CN(C)C(=O)Nc1ccc(F)cc1`, the AC50 [7] is reported as 0.65 µM (active), the AC50 [8] is reported as 0.392 µM (active) and the AC50 [9] is reported as 0.35 µM (active). For the same compound, the AC50 [10] was 0.372 µM (active).
For `COc1cc2c3cc1Oc1c(OC)c(OC)cc4c1[C@H](Cc1ccc(cc1)Oc1cc(ccc1O)C[C@H]3N(C)CC2)N(C)CC4` [AROMOLINE], the AC50 [2] was 9.29 µM (active).

Reference: ChEMBL document CHEMBL1201862, “PubChem BioAssay data set” (2004)
